Test system: human liver microsomes, metabolic stability half-life
Test: NCATS Human Liver Microsomal (HLM) Stability Profiling
Settings: higher = more stable; screened at 1 µM (by protocol)
Procedure, shortened: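 Half-life derived from parent loss over 0–60 min (0, 5, 10, 15, 30, 60 min) at 37 °C. Incubations: 0.5 mg/mL microsomes, 1 µM test article, NADPH regeneration, pH 7.4 phosphate; quenched in acetonitrile containing albendazole, analysed by MS.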

Compound | half-life [min]
Cc1cc(C)cc(-c2cnc3cc(Cl)c(-c4cccc(O)c4)cc3c2OCCCN)c1 | 25.3
CN(C)Cc1c(C(=O)NCCOc2ccc(C(=O)NO)cc2)oc2ccccc12 | > 120
C/C(=C(/OCCOc1ccc(Cl)cc1)c1ccc(Cl)cc1Cl)n1ccnc1 | 10.1
Cc1ccccc1C(=O)Nc1cccc(-c2nc3cccnc3s2)c1 | 6.57
COC(=O)c1ccc2c(C(=Nc3ccc(N(C)C(=O)CN4CCN(C)CC4)cc3)c3ccccc3)c(O)[nH]c2c1 | 49.1
CCOc1ccc(-n2c(C(C)N(Cc3cccnc3)C(=O)Cc3ccc(F)c(C(F)(F)F)c3)nc3ncccc3c2=O)cc1 (stereo not drawn) | 4.89
Oc1c(Cl)cc(Cl)c2cccnc12 | 25.2
CCOc1ncc(S(=O)(=O)N2CCN(CC)CC2)cc1-c1nc2c(CC)n(CCOC)nc2c(=O)[nH]1 | 76.2
C=CC(=O)N1CCN(C(=O)CNc2cc(-c3ccccc3Cl)c(Cl)cc2OC)CC1 | 9.86
CC(C)(N)c1ncc(-c2ccc(OC(F)(F)F)cc2)[nH]1 | > 120
Cc1c(C(=O)Nc2cccc(C(F)(F)F)c2)cc(-c2ccccc2)n1CCCN1CCOCC1 | 8.06
C[C@H](N)C(=O)N1CCC(n2nccc2NC(=O)Nc2ccccc2Cl)CC1 | > 120
C1N2CN3CN1CN(C2)C3 | 30.5
CCn1cc(C(=O)O)c(=O)c2cc(F)c(N3CCN[C@@H](C)C3)c(F)c21 | 87.7
COc1ccc2c(c1)CC[C@@H](CN(C)CC(=O)O)[C@H]2c1ccccc1 | > 120
Cc1cc(CN)cc(C)c1NC(=O)c1ccc(-c2cc(Cl)ccc2Cl)o1 | > 120
COCC(=O)NCC=Cc1ccc2ncnc(Nc3ccc(Oc4ccc(C)nc4)c(C)c3)c2c1 | 22.7
O=C(N[C@@H]1CC[C@@H](c2cccc(F)c2F)CN(CC(F)(F)F)C1=O)N1CCC(n2c(=O)[nH]c3ncccc32)CC1 | 60.2
COc1cc(C(=O)NCC2(N(C)C)CCCC2)cc(OC)c1OCc1ccccc1 | 38.3
COc1ccc(CN2CCC3(CC(C)=NO3)C2)cc1 (stereo not drawn) | 19.2
O=S(c1cc(Cl)cc(Cl)c1O)c1cc(Cl)cc(Cl)c1O | 99.8
NC(=Nc1ccccc1)Nc1ccccc1 | > 120
Nc1ccc(S(=O)(=O)Nc2ccccc2)cc1 | > 120
COc1ccc(-c2cn3cccnc3n2)cc1NC(=O)c1cc(C)cc(C)c1 | 20.7
COc1ccc(CN2CCN(C(c3ccc(F)cc3)c3ccc(F)cc3)CC2)c(OC)c1OC | 13.1
O=C1c2ccccc2C(=O)c2c(O)c(O)cc(O)c21 | 59.8

Compound | half-life [min]
C[C@@H]1O[C@@H](OC[C@H]2O[C@@H](Oc3c(-c4ccc(O)c(O)c4)oc4cc(O)cc(O)c4c3=O)[C@H](O)[C@@H](O)[C@@H]2O)[C@H](O)[C@H](O)[C@H]1O | > 120
Nc1nc2c(c(N3CCNCC3)n1)CCC1=C2[C@@H]2CCCC[C@@H]2O1 | > 120
Cc1cnc(Nc2cccc(CN3CCOCC3)c2)nc1Nc1cccc(S(=O)(=O)NC(C)(C)C)c1 | 19.5
CCN1C(=O)c2ccccc2C1Nc1ccc(OCCN2CCCCC2)cc1 (stereo not drawn) | 105
COc1ccc(Cn2c(SCc3ccc(C(=O)NC4CCCC4)cc3)nc3ccncc32)cc1 | 14.5
c1ccc(N2CCN(CCc3nn[nH]n3)CC2)cc1 | > 120
CC(C)COC(=O)c1ccc(N)cc1 | 11.4
CCCN(CCC)CCc1cccc2c1CC(=O)N2 | > 120
Cc1ccc2c(c1)c1c(n2CCc2ccc(C)nc2)CCN(C)C1 | 8.67
CC(C)CCC(=O)CC1c2ccccc2C(=O)N1c1ccc2ccc(Cl)nc2n1 (stereo not drawn) | 7.76
COc1ccc(-c2cc3onc(-c4ccncc4)c3c(=O)n2C)cc1 | > 120
CC(C)Oc1ccc2c(=O)c(-c3ccccc3)coc2c1 | 16.1
C=Cc1ccc(Cn2c(SCC(=O)N3CCN(c4ccc(F)cc4)CC3)nc3ccccc32)cc1 | 2.42
CC(=O)Nc1ccc(OC[C@@H](O)CNC(C)C)cc1 | > 120
Cc1csc(NC(=O)c2ccc(COc3cccc(Cl)c3)o2)n1 | 14.9
CN1C2CCC(C)(C)C1CC(OC(=O)C(O)(c1cccs1)c1cccs1)C2 (stereo not drawn) | 26.5
CN1CCCC(CC2c3ccccc3Sc3ccccc32)C1 (stereo not drawn) | 48.7
Cc1ccc(S(=O)(=O)Nc2ccccc2N2CCCCC2)cc1 | 3.04
NC(=O)c1ccc(F)c2c1C[C@@H](N(C1CCC1)C1CCC1)CO2 | 15
O=[N+]([O-])c1cn2c(n1)OC[C@@H](OCc1ccc(OC(F)(F)F)cc1)C2 | > 120
O=C(CCc1nnc2n(Cc3ccc(Cl)cc3)c(=O)c3ccccc3n12)NCCC1=CCCCC1 | 1.05
CCCCC(=O)O[C@]1(C(=O)CO)[C@@H](C)C[C@H]2[C@@H]3CCC4=CC(=O)C=C[C@]4(C)[C@@]3(F)[C@@H](O)C[C@@]21C | 4.35
COc1ccc(-n2nc3c(N4CCCC(C(=O)NCc5ccccc5C)C4)nnc(C)c3c2C)cc1 (stereo not drawn) | 2.48
COc1cc2ncnc(Nc3ccc(F)c(Cl)c3)c2cc1NC(=O)C=CCN1CCCCC1 | > 120
Cc1cncn1CCc1nc2c3ccccc3nc(SCC(=O)Nc3cccc(Cl)c3)n2n1 | 11.6
CCC[C@H](N[C@@H](C)C(=O)N1[C@H](C(=O)O)C[C@@H]2CCCC[C@@H]21)C(=O)OCC | > 120

Compound | half-life [min]
CC1(COc2ccc3c(c2)ncn3-c2ccc3cccc(N4CCC(N)CC4)c3n2)COC1 | 75.4
O=C(Nc1nnc(-c2ccc3c(c2)OCCO3)o1)C1CCCCC1 | 0.57
CCOC(=O)c1sc(NC(=O)c2c(-c3ccccc3)c(-c3ccccc3)nn(C)c2=O)nc1C | > 120
CC1(C)C(=O)N(c2ccc(C#N)c(C(F)(F)F)c2)C(=S)N1c1ccc(C(N)=O)c(F)c1 | > 120
CN(C)c1ccc2nc3ccc(=[N+](C)C)cc-3sc2c1 | > 120
Cc1cnc(NC(=O)c2cc(S(=O)(=O)N(C)C)ccc2N2CCCC2)s1 | 24.3
CCC(C(=O)O)c1ccc(N2Cc3ccccc3C2=O)cc1 (stereo not drawn) | > 120
Cc1[nH]c(/C=C2\C(=O)Nc3cc(-c4ccccc4)ccc32)c(C)c1CCC(=O)O | > 120
COP(=S)(OC)SCn1nnc2ccccc2c1=O | 8.16
CC(=O)C1=C(c2ccc(Cl)c(Cl)c2)N(C(C)=O)n2cnnc2S1 | 4.52
COc1cc2c(cc1OC)CN(C(=O)[C@H](C)N[C@@H](CCc1ccccc1)C(=O)O)[C@H](C(=O)O)C2 | > 120
COCCCN1CCC(NC(=O)c2cc(Cl)c(N)c3c2OCC3)CC1 | > 120
Cc1ccc(-c2ccccc2C#N)cc1 | 1
COc1cc(Nc2nc3c(s2)CCCC3c2ccccc2)ccc1-n1cnc(C)c1 (stereo not drawn) | 31
CCN(CC)CCCN(c1ccccc1)C1Cc2ccccc2C1 | 11.5
CC(C)CN1C(=O)c2cccn2CC1C(=O)N1CCN(C)CC1 (stereo not drawn) | 62.8
O=C(N[C@@H](COc1ccc2[nH]c(=O)[nH]c2c1)c1ccccc1)c1cccn(Cc2ccc(F)c(F)c2)c1=O | 42.5
O=C(Nc1cccc(-c2nc3cc(Cl)ccc3o2)c1)c1ccccc1 | 5.41
CCCCCC(=O)O[C@]1(C(C)=O)CC[C@H]2[C@@H]3CCC4=CC(=O)CC[C@]4(C)[C@H]3CC[C@@]21C | 1.86
CC(C)(C)NC[C@H](O)COc1cccc2c1CCCC2=O | > 120
C=CCN1CC[C@]23c4c5ccc(O)c4O[C@H]2C(=O)CC[C@@]3(O)[C@H]1C5 | > 120
COc1ccc2c3c1O[C@H]1[C@@H](O)C=C[C@H]4[C@@H](C2)N(C)CC[C@@]341 | 112
CCN(CC)C(=O)SCc1ccc(Cl)cc1 | 2.59
Cn1cnc2c1c(=O)[nH]c(=O)n2C | 60.4
CCN(CC)C(C)C(=O)c1ccccc1 (stereo not drawn) | > 120
CCN(CC)CCCCCCNc1cc(OC)cc2c(C)ccnc12 | > 120

Compound | half-life [min]
CCC(=C(c1ccc(OCCN2CCCC2)cc1)c1ccc(OCCN2CCCC2)cc1)c1ccccc1 | > 120
CC(C)(O)c1ccccc1CC[C@H](SCC1(CC(=O)O)CC1)c1cccc(/C=C/c2ccc3ccc(Cl)cc3n2)c1 | 36.5
C[C@@H]1C[C@H]2[C@@H]3C[C@H](F)C4=CC(=O)C(Cl)=C[C@]4(C)[C@@]3(F)[C@@H](O)C[C@]2(C)[C@@]1(O)C(=O)CO | 46.3
CC(CN1c2ccccc2Sc2ccccc21)N(C)C (stereo not drawn) | 32.3
O=C(OC1C[C@@H]2CC3C[C@H](C1)N2CC3=O)c1c[nH]c2ccccc12 (stereo partly drawn) | 5.19
Cc1ccc(S(=O)(=O)NC(=O)NN2CCCCCC2)cc1 | > 120
O=C(Nc1ncc([N+](=O)[O-])s1)c1cccs1 | 29
C#CCOC(C(=O)OCCN(C)C)(c1ccccc1)c1ccccc1 | 43.7
COc1ccc2c(c1)CCCC2=O | 17.6
CNCCCC12CCC(c3ccccc31)c1ccccc12 | > 120
CCOC(=O)c1c(NC(=O)c2ccc(S(=O)(=O)N(C)C3CCCCC3)cc2)sc2c1CCN(C(C)C)C2 | 2.21
C#CCN(Cc1cc2c(=O)[nH]c(C)nc2cc1Br)c1ccc(C(=O)NCc2cccnc2)cc1 | 9.7
Fc1ccc2[nH]c(CN3CCN(c4ccccn4)CC3)cc2c1 | 14.3
Cc1ccc2nc(-c3cc(NC(=O)c4ccc5c(c4)OCCO5)ccc3Cl)oc2c1 | 63.3
COc1cc(C)c(Sc2cnc(NC(=O)c3ccc(CNC(C)C(C)C)cc3)s2)cc1C(=O)N1CCN(C(C)=O)CC1 (stereo not drawn) | 8.06
CN[C@@H](C)[C@@H](O)c1ccccc1 | > 120
C[C@H]1[C@H](/C=C/c2ccc(-c3ccccc3C#N)cn2)[C@@H]2[C@@H](C)OC(=O)[C@@H]2C[C@@H]1C | 15.3
CCCCS(=O)(=O)N[C@@H](Cc1ccc(OCCCCC2CCNCC2)cc1)C(=O)O | > 120
O=c1cc(N2CCOCC2)oc2c(-c3cccc(F)c3)nccc12 | 34.5
CCNc1nc(Cl)nc(NCC)n1 | 59.4
C=CCc1ccccc1OCC(O)CNC(C)C (stereo not drawn) | 22
CN1CCN(C2CCC(n3cc(-c4ccc(Oc5ccccc5)cc4)c4c(N)ncnc43)CC2)CC1 (stereo not drawn) | 58.6
CCN(CC)Cc1ccc(C(=O)N(CCc2ccccc2OC)[C@@H]2CCNC2)cc1 | > 120
CC(C)(N)c1ccc(-c2nc3ccccc3nc2-c2ccccc2)cc1 | > 120
COc1ccc(CCNC(=O)CCc2c(C)c3cc4c(C)coc4cc3oc2=O)cc1 | 5.41

From PubChem BioAssay AID1963597 (National Center for Advancing Translational Sciences (NCATS), 2024)
